# Patent US8546579B2, “Bicycloheteroaryl compounds as P2X7 modulators and uses thereof” (Evotec (US) Inc., priority 2006, dated 2013)
# Molecular target: T1, P2X7 receptor (Homo sapiens, UniProt Q99572)
# T1 construct: host or cells: THP-1 cells differentiated with LPS and IFN-γ
# T1 sequence (Q99572 1-595): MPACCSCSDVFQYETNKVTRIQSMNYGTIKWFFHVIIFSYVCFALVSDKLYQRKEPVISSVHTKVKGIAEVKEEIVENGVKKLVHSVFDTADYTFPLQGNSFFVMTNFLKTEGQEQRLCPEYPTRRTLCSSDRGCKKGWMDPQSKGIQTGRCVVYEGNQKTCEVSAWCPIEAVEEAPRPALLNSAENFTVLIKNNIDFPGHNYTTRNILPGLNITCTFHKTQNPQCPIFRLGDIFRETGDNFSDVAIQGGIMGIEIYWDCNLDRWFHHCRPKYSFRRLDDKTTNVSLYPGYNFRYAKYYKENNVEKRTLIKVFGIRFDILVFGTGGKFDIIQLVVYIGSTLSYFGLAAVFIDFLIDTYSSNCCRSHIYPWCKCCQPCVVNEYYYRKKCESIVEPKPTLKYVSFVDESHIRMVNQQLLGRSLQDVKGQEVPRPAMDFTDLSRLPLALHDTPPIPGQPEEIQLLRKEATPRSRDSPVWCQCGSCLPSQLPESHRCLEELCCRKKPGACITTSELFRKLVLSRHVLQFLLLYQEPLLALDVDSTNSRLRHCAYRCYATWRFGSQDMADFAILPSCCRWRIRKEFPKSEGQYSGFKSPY
# Experiment: IL-1β release assay in differentiated THP-1 cells stimulated with BzATP (Example 9)
# Format: cell-based
# Design: inhibition: dose or concentration left out as unconfirmed
# Conditions: 0.1 μM compound; differentiated THP-1 cells, BzATP 250 uM; "*" class symbols; read-out: IL-1β % Inhib. ("*" symbols: at 0.1 μM)
# Summary of the method: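 THP-1 cells differentiated 16 h with LPS and IFN-γ (100 ng/mL each), re-primed 2 h with LPS, then compound-pretreated 30 min before 250 uM BzATP for 45 min. Supernatant IL-1β quantified by ELISA; background-adjusted percent inhibition fitted to four-parameter logistic for IC50.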
row,inhibition at 0.1 µM [%],Compound
1,26 to 50,CC(c1ccccn1)n1ccc2c(NC(=O)Cc3ccc(Cl)c(F)c3)cccc2c1=O (stereo not shown) [Compound 1637]
2,0 to 25,O=C(CCc1ccc(Cl)cc1)Nc1cccc2c(=O)n(Cc3ccc(OC(F)(F)F)cc3)ccc12 [Compound 1603]

# Same assay, conditions: 0.1 μM compound; differentiated THP-1 cells, BzATP 250 uM; '*' class symbols; read-out: IL-1β % Inhib. (asterisk classes, 0.1 μM)
row,inhibition at 0.1 µM [%],Compound
1,0 to 25,COc1cc(OC)cc(C(=O)Nc2cccc3c(=O)n(CCN4CCOCC4)ccc23)c1 [Compound 1196]

# Same assay, conditions: 0.1 μM compound; differentiated THP-1 cells, BzATP 250 uM; symbols * to ****; read-out: IL-1β % Inhib. (asterisk symbols: at 0.1 μM)
row,inhibition at 0.1 µM [%],Compound
1,0 to 25,COc1cc(OC)cc(C(=O)Nc2cccc3c(=O)n(C)ccc23)c1 [Compound 1290]
2,0 to 25,COc1ccccc1CCC(=O)Nc1cccc2c(=O)n(Cc3cccnc3)ccc12 [Compound 1348]
3,0 to 25,COc1cc(OC)cc(C(=O)Nc2cccc3c(=O)n(CC(C)(C)C)ccc23)c1 [Compound 1245]

# Same assay, conditions: 0.3 μM compound; differentiated THP-1 cells, BzATP 250 uM; '+' class symbols; read-out: IL-1β % Inhib. @ 0.3 μM
row,inhibition at 0.3 µM [%],Compound
1,0 to 25,Cc1ccccc1CC(=O)Nc1cccc2c(=O)n(CC3CCOCC3)ccc12 [Compound 1101]
2,0 to 25,Cc1ccc(C)c(CC(=O)Nc2cccc3c(=O)n(CC(C)(C)C)ccc23)c1 [Compound 1051]
3,0 to 25,CN(C)CCn1ccc2c(NC(=O)Cc3ccccc3F)cccc2c1=O [Compound 1154]
4,0 to 25,COCCn1ccc2c(NC(=O)Cc3cc(C)ccc3C)cccc2c1=O [Compound 1066]
5,0 to 25,Cc1cc(C(=O)Nc2cccc3c(=O)n(CCN(C)C)ccc23)ccc1F [Compound 1175]
6,0 to 25,O=C(Nc1cccc2c(=O)n(CC3CCOCC3)ccc12)c1cccc2c1OCCO2 [Compound 1117]
7,0 to 25,Cc1cc(C(=O)Nc2cccc3c(=O)n(Cc4cccnc4)ccc23)ccc1Cl [Compound 1081]
8,0 to 25,Cc1ccc(C)c(C(=O)Nc2cccc3c(=O)n(CCN4CCOCC4)ccc23)c1 [Compound 1194]
9,0 to 25,COc1ccc(CC(=O)Nc2cccc3c(=O)n(CC4CCOCC4)ccc23)c(OC)c1 [Compound 1123]
10,0 to 25,CN(C)CCn1ccc2c(NC(=O)c3ccc4c(c3)OCCCO4)cccc2c1=O [Compound 1170]
11,0 to 25,Cc1cccc(C(=O)Nc2cccc3c(=O)n(CC4CCOCC4)ccc23)c1Cl [Compound 1132]
12,0 to 25,CN(C)CCn1ccc2c(NC(=O)Cc3ccccc3Cl)cccc2c1=O [Compound 1155]

# Same assay, conditions: 0.3 μM compound; differentiated THP-1 cells, BzATP 250 uM; symbols + to ++++; read-out: IL-1β % Inhib. @ 0.3 μM
row,inhibition at 0.3 µM [%],Compound
1,0 to 25,Cn1ccc2c(NC(=O)Cc3ccccc3F)cccc2c1=O [Compound 1294]
2,0 to 25,COCCn1ccc2c(NC(=O)c3ccc(F)c(C)c3)cccc2c1=O [Compound 1334]
3,0 to 25,O=C(Nc1cccc2c(=O)n(CCN3CCOCC3)ccc12)c1ccc2c(c1)OCCCO2 [Compound 1225]
4,0 to 25,COCCn1ccc2c(NC(=O)Cc3csc4ccccc34)cccc2c1=O [Compound 1329]
5,0 to 25,CC(C)Cc1ccc(C(=O)Nc2cccc3c(=O)n(Cc4cccnc4)ccc23)cc1 [Compound 1372]
6,26 to 50,CN(C)CCn1ccc2c(NC(=O)CC3CCCCCC3)cccc2c1=O [Compound 1389]
7,0 to 25,COc1ccc(CC(=O)Nc2cccc3c(=O)n(CCN4CCOCC4)ccc23)cc1 [Compound 1212]
8,0 to 25,Cc1ccc(CCC(=O)Nc2cccc3c(=O)n(CCN4CCOCC4)ccc23)c(C)c1 [Compound 1241]
9,26 to 50,COc1cc(CC(=O)Nc2cccc3c(=O)n(CCN4CCOCC4)ccc23)cc(OC)c1 [Compound 1218]
10,≥ 76,CC(C)(C)Cn1ccc2c(NC(=O)C3C[C@@H]4CC[C@H]3C4)cccc2c1=O (stereo partly shown) [Compound 1277]
11,0 to 25,COc1ccc(CC(=O)Nc2cccc3c(=O)n(CCN4CCOCC4)ccc23)cc1OC [Compound 1210]
12,0 to 25,COCCn1ccc2c(NC(=O)[C@H]3C[C@@H]4CC[C@H]3C4)cccc2c1=O [Compound 1332]

# Same assay, conditions: THP-1; read-out: IL-1β % Inhib.
row,inhibition [%],Compound
1,26 to 50,COc1cccc(CCC(=O)Nc2cccc3c(=O)n(CCCN4CCCC4=O)ccc23)c1 [Compound 1497]
2,0 to 25,Cc1ccc(C(=O)Nc2cccc3c(=O)n(Cc4ccc(OC(F)(F)F)cc4)ccc23)cc1Cl [Compound 1591]
3,0 to 25,Cc1cccc(C(=O)Nc2cccc3c(=O)n(CCCN4CCCC4=O)ccc23)c1C [Compound 1508]
4,0 to 25,Cc1ccc(Cl)cc1C(=O)Nc1cccc2c(=O)n(CC3CCN(C)CC3)ccc12 [Compound 1487]
5,0 to 25,Cc1cccc(CC(=O)Nc2cccc3c(=O)n(CCCN4CCCC4=O)ccc23)c1 [Compound 1521]
6,0 to 25,CN1CCC(Cn2ccc3c(NC(=O)c4ccc(-c5ccccc5)o4)cccc3c2=O)CC1 [Compound 1458]
7,0 to 25,Cc1cc(C(=O)Nc2cccc3c(=O)n(Cc4cccnc4)ccc23)ccc1F [Compound 1454]
8,0 to 25,O=C(Nc1cccc2c(=O)n(CCCN3CCCC3=O)ccc12)c1ccc(-c2ccccc2)o1 [Compound 1496]
9,0 to 25,CN1CCC(Cn2ccc3c(NC(=O)CCc4ccc(Cl)cc4)cccc3c2=O)CC1 [Compound 1485]
10,0 to 25,COCCn1ccc2c(NC(=O)Cc3ccccc3Cl)cccc2c1=O [Compound 1436]
11,26 to 50,Cc1ccc(C(=O)Nc2cccc3c(=O)n(CCCN4CCCC4=O)ccc23)cc1Cl [Compound 1530]
12,0 to 25,O=C(CCc1ccccc1Cl)Nc1cccc2c(=O)n(Cc3ccc(OC(F)(F)F)cc3)ccc12 [Compound 1557]
13,0 to 25,O=C(Nc1cccc2c(=O)n(Cc3cccnc3)ccc12)c1cc(Cl)ccc1Cl [Compound 1442]
14,26 to 50,COc1ccc(CC(=O)Nc2cccc3c(=O)n(Cc4ccc(OC(F)(F)F)cc4)ccc23)cc1 [Compound 1583]
15,0 to 25,O=C1CCCN1CCCn1ccc2c(NC(=O)[C@@]34C[C@@H]5C[C@@H](C[C@@H]3C5)C4)cccc2c1=O [Compound 1532]
16,51 to 75,Cc1c(Cl)cccc1C(=O)Nc1cccc2c(=O)n(CCCN3CCCC3=O)ccc12 [Compound 1534]
17,0 to 25,CCOc1cccc(C(=O)Nc2cccc3c(=O)n(Cc4ccc(OC(F)(F)F)cc4)ccc23)c1 [Compound 1556]
18,0 to 25,CCOc1ccc(C(=O)Nc2cccc3c(=O)n(Cc4ccc(OC(F)(F)F)cc4)ccc23)cc1 [Compound 1568]
19,0 to 25,O=C(CCc1ccc2c(c1)OCO2)Nc1cccc2c(=O)n(CCCN3CCCC3=O)ccc12 [Compound 1502]
20,0 to 25,O=C(Nc1cccc2c(=O)n(CC3CCOCC3)ccc12)c1ccc(-c2ccccc2)cc1 [Compound 1408]
21,0 to 25,COCCn1ccc2c(NC(=O)CCc3ccccc3OC)cccc2c1=O [Compound 1432]
22,0 to 25,Cc1cc(C)c(CC(=O)Nc2cccc3c(=O)n(CCCN4CCCC4=O)ccc23)c(C)c1 [Compound 1498]
23,0 to 25,O=C(Nc1cccc2c(=O)n(Cc3ccc(OC(F)(F)F)cc3)ccc12)c1ccc(-c2ccccc2)o1 [Compound 1551]
24,0 to 25,CCOc1cccc(C(=O)Nc2cccc3c(=O)n(Cc4cccnc4)ccc23)c1 [Compound 1407]
25,0 to 25,Cc1ccccc1C(=O)Nc1cccc2c(=O)n(CCCN3CCCC3=O)ccc12 [Compound 1507]
26,0 to 25,Cc1cc(C(=O)Nc2cccc3c(=O)n(CCCN4CCCC4=O)ccc23)ccc1F [Compound 1536]

# Same assay, conditions: THP-1 cells, BzATP-stimulated IL-1β release, four parameter logistic fit
row,IC50 [nM],Compound
1,311,CN(C)CCn1ccc2c(NC(=O)CC3CCCCCC3)cccc2c1=O [Compound 1389]
2,> 1000,CN(C)CCn1ccc2c(NC(=O)c3ccc(S(C)(=O)=O)cc3)cccc2c1=O [Compound 1008]
